Assay results as given in PMC5374710, “Discovery of the first dual GSK3β inhibitor/Nrf2 inducer. A new multitarget therapeutic strategy for Alzheimer’s disease” (Scientific Reports, 2017).

Test system: Nrf2
Assay: Luciferase activity in AREc32 cells after scramble or GSK3β siRNA
Format: cell-based, human
Conditions: 10 μM, 24 h
Experimental: To further evaluate the potential relationship between GSK3β inhibition and the Nrf2 induction properties we used two different approaches. […] Cells were treated with compound 5m at increasing concentrations alone or in presence of Li (10 mM) during 24 h and thereafter, luciferase activity was evaluated. […] Secondly, to corroborate the independence of the Nrf2 induction properties of our derivatives from their GSK3β inhibitory properties, we used GSK3β knock down experimental conditions using siRNA. […] After knockdown of GSK3β, AREc32 cells were incubated with compound 5m (10 μM) during 24 h (Fig. 4B). Subsequently, luciferase activity and HO-1 expression were analyzed. […] Similar results were obtained when HO-1 expression was analyzed (Fig. 4D), compound 5m increased HO-1 expression 3.9 times after scramble treatment and 3.5 times after knockdown of GSK3β showing no statistical differences between both conditions. […]
Figure 4 Nrf2 induction properties are independent of the GSK3β inhibitory activity. […] (D) HO-1 expression induced by compound 5m (10 μM) measured at the same experimental conditions used previously. Values are expressed as mean ± SEM of three independent experiments in duplicate. ^###p < 0.001; ^##p < 0.01; ^#p < 0.05 compared to the correspondent basal conditions. […]

Cc1[nH]nc2c1C(c1ccc(Br)cc1)C(C#N)=C(N)O2 (centres unmarked) [Compound 5m, 6-Amino-4-(4-bromophenyl)-3-methyl-2,4-dihydropyrano[2,3-c]pyrazole-5-carbonitrile]
Luciferase activity fold increase compared to basal conditions (GSK3β silenced (siGSK3β)): 2.8 fold | Luciferase activity fold increase compared to basal conditions (cells previously treated with scramble control siRNA): 2.2 fold
